In patent publication US20230012936A1, “COMBINATION THERAPY USING GLUCAGON AND GLP-1 CO-AGONISTS FOR THE TREATMENT OF OBESITY” (MEDIMMUNE, LLC, priority 2019, published 2023):
Where two headings read alike, the source gives them in different places.

What was measured:
Type in all cases: in vivo, human
[1] = system: overweight/obese subjects with Type 2 Diabetes Mellitus (T2DM); assay: Hemoglobin A1c (HbA1c), Phase 2a study
Method: The change in hemoglobin A1c (glycated hemoglobin; HbA1c) from baseline to Day 28 was assessed.

[2] = system: overweight/obese subjects with Type 2 Diabetes Mellitus (T2DM); conditions: for Change from baseline in percentage of CGM glucose readings within the hyperglycemic range, mean: glucose >180 mg/dL; for Change from baseline in percentage of CGM glucose readings within the euglycemic range, mean: glucose ≥70 and ≤180 mg/dL; for 7-Day CGM mean glucose, mean / 7-Day CGM mean glucose, median: post-hoc
Excerpt: A continuous glucose monitoring (CGM) device was used to measure interstitial glucose levels during the study. Subjects wore the CGM sensor continuously up until the time of a sensor change (every 7 to 14 days). If a subject was unable to tolerate wearing the CGM sensor for the entire duration of the study, the sensor was to be removed; but the subject should have remained in the study with or without continued CGM.
Subjects underwent continuous glucose monitoring (CGM) for a total of 28 days with sensor changes every 7 to 14 days. The changes in CGM glucose AUC0-24 h and mean glucose over 24 hours from baseline to the end of each dosing level on Days 7 (100 μg), 14 (200 μg), and 28 (300 μg) were measured. Variability in glucose levels was also assessed by measuring the changes in standard deviation (SD), coefficient of variation (CV), and mean amplitude of glucose excursion (MAGE) of CGM glucose values over 24 hours.
Changes from baseline in the percentages of 24-hour CGM glucose readings that fell within the euglycemic, hyperglycemic, hypoglycemic, and clinically significant hypoglycemic ranges were assessed at the end of each dosing level.
In addition, a post-hoc analysis of CGM mean glucose over 7 days was conducted to further evaluate the effect of cotadutide on glucose control at each dose level.

[3] = Pharmacokinetics of cotadutide in plasma (LC-MS/MS)
Method: The Cmax and the corresponding tmax were identified from the observed data. Log-linear regression of the terminal phase yielded the terminal rate constant (λz). The area under the plasma concentration time-curve during the dosing interval (AUCτ) was calculated by the log-linear trapezoidal rule. The area under the curve to infinity (AUC0-inf) was calculated as the sum of AUC(o-t) and Ct/z, where Ct is the observed plasma concentration obtained from the log-linear regression analysis of the last quantifiable time point and z is the terminal phase rate constant. Clearance (CL/F) was determined by dose/AUC0-inf, and the terminal half-life (t1/2) was calculated as 0.693/λz.

[4] = system: overweight/obese subjects with Type 2 Diabetes Mellitus (T2DM); assay: Pancreatic and incretin hormone profiles during the MMTT
Method: Subjects were admitted to the unit on Day −2 and on Day 27. On Day −1 and on Day 28, following a minimum 10 hour fast, a blood sample for glucose metabolism panel (glucose, insulin, C-peptide, glucagon, and active GLP-1) was taken immediately prior to the subject drinking a standardized mixed meal (t=“0 minutes”). The subject then consumed a can of Ensure Plus, which is a nutritional supplement containing the components of fat, carbohydrate, and protein that make up a standard mixed-meal tolerance test (MMTT). After the meal, timed, serial blood samples were obtained for measurement of glucose and parameters related to glucose metabolism (with no additional food intake during this time). The MMTT was performed on Day-1 and Day 28.
Blood samples for the glucose metabolism panel were drawn at t=“0 minutes” (before meal) and at 15, 30, 45, 60, 90, 120, 180, and 240 minutes (±5 minutes) after consumption of the standardized meal. Additional sampling for glucagon, insulin, C-peptide, and glucose was taken at 6, 8, 12, and 24 hours (±30 minutes) post-administration (t=“0 minutes”) of the standardized meal on Day −1 and 28.
The change and percent change from baseline (Day-1) to the end of the 28 days of treatment (Day 28) in glucose AUC0-4 h were determined as measured by the MMTT. In addition, the change from baseline (Day −1) to Day 28 in active GLP-1, glucagon, insulin, and C-peptide AUC0-4 h were also measured by MMTT.
The changes in insulin and C-peptide AUC004h from baseline to Day 28 were assessed. At baseline, the mean insulin AUC0-4 h was higher in the cotadutide group compared with the placebo group (91.768 vs 78.472 hr·mU/L, respectively). There was no meaningful difference from baseline in LS mean insulin AUC0-4 h at Day 28 between the cotadutide and placebo groups (−0.08 and 2.78 hr·mU/L, respectively; LS mean difference: −2.86 hr·mU/L; p=0.7760). At baseline, the mean C-peptide AUC0-4 h was similar in the cotadutide and placebo groups (11.278 vs 10.605 hr. μg/L, respectively). There was no meaningful difference from baseline in LS mean C-peptide AUC0-4 h at Day 28 between the cotadutide and placebo groups (0.32 and −0.29 hr. μg/L, respectively (LS mean difference: […]; p=0.4345).

[5] = Body weight, Phase 2a study
Method: Body weight was measured during the screening period, at the start of the run—in period (Day −28), and prior to breakfast on Day 1 (predose) and Day 29. The subject should have taken off their shoes and remove bulky clothing. Calibrated scales were used.
The change and percent change in body weight from baseline (Day 1) to Day 29 (kg) were determined. The proportion of subjects achieving>5% body weight loss from baseline (Day 1) to Day 29 was also determined.

CCCCCCCCCCCCCCCC(=O)N[C@@H](CCC(=O)NCCCC[C@H](NC(=O)[C@H](CC(=O)O)NC(=O)[C@H](CO)NC(=O)[C@@H](NC(=O)[C@H](Cc1ccccc1)NC(=O)[C@@H](NC(=O)CNC(=O)[C@H](CCC(N)=O)NC(=O)[C@H](CO)NC(=O)[C@@H](N)Cc1c[nH]cn1)[C@@H](C)O)[C@@H](C)O)C(=O)N[C@@H](CO)C(=O)N[C@@H](CCC(=O)O)C(=O)N[C@@H](Cc1ccc(O)cc1)C(=O)N[C@@H](CC(C)C)C(=O)N[C@@H](CC(=O)O)C(=O)N[C@@H](CO)C(=O)N[C@@H](CCC(=O)O)C(=O)N[C@@H](CCCNC(=N)N)C(=O)N[C@@H](C)C(=O)N[C@@H](CCCNC(=N)N)C(=O)N[C@@H](CC(=O)O)C(=O)N[C@@H](Cc1ccccc1)C(=O)N[C@H](C(=O)N[C@@H](C)C(=O)N[C@@H](Cc1c[nH]c2ccccc12)C(=O)N[C@@H](CC(C)C)C(=O)N[C@@H](CCC(=O)O)C(=O)N[C@@H](C)C(=O)NCC(=O)NCC(=O)O)C(C)C)C(=O)O [Cotadutide]
Hemoglobin A1c, Day 28, mean ([1]; Day 28, ITT): 6.75%
Hemoglobin A1c, Day 28, median ([1]; Day 28, ITT): 6.65%
Hemoglobin A1c, change from baseline, mean ([1]; baseline to Day 28): −1.04%
Hemoglobin A1c, change from baseline, median ([1]; baseline to Day 28): −1.10%
Hemoglobin A1c, change from baseline, LS mean ([1]; baseline to Day 28, ANCOVA): −1.03%
Hemoglobin A1c, change from baseline, LS mean difference ([1]; baseline to Day 28, vs placebo): −0.58%
Change from baseline in CGM mean glucose over 24 hours, mean ([2]; Day 7 (100 μg)): -34.74 mg/dL
Change from baseline in MAGE of CGM glucose, mean ([2]; Day 7 (100 μg)): -25.74 mg/dL
Change in CGM glucose AUC0-24 h from baseline, mean ([2]; Day 7 (100 μg)): -832.66 mg·h/dL
Change in CGM glucose AUC0-24 h from baseline, median ([2]; Day 7 (100 μg)): -962.95 mg·h/dL
Change in SD over 24 hours in CGM glucose from baseline, mean ([2]; Day 7 (100 μg)): -7.21 mg/dL
Change in SD over 24 hours in CGM glucose from baseline, median ([2]; Day 7 (100 μg)): -11.16 mg/dL
Change from baseline in percentage of CGM glucose readings within the hyperglycemic range, mean ([2]; Day 7): −13.99%
Change from baseline in percentage of CGM glucose readings within the euglycemic range, mean ([2]; Day 7): 7.12%
Change from baseline in CGM mean glucose over 24 hours, mean ([2]; Day 14 (200 μg)): -28.34 mg/dL
Change from baseline in MAGE of CGM glucose, mean ([2]; Day 14 (200 μg)): -26.59 mg/dL
Change in CGM glucose AUC0-24 h from baseline, mean ([2]; Day 14 (200 μg)): -666.05 mg·h/dL
Change in CGM glucose AUC0-24 h from baseline, median ([2]; Day 14 (200 μg)): -897.02 mg·h/dL
Change in SD over 24 hours in CGM glucose from baseline, mean ([2]; Day 14 (200 μg)): -7.52 mg/dL
Change in SD over 24 hours in CGM glucose from baseline, median ([2]; Day 14 (200 μg)): -8.36 mg/dL
Change from baseline in percentage of CGM glucose readings within the hyperglycemic range, mean ([2]; Day 14): −9.81%
Change from baseline in percentage of CGM glucose readings within the euglycemic range, mean ([2]; Day 14): 5.31%
Change in CGM glucose AUC0-24 h from baseline, mean ([2]; Day 28 (LOCF) (300 μg)): -695.16 mg·h/dL
Change in CGM glucose AUC0-24 h from baseline, median ([2]; Day 28 (LOCF) (300 μg)): -928.48 mg·h/dL
Change in SD over 24 hours in CGM glucose from baseline, mean ([2]; Day 28 (LOCF) (300 μg)): -8.89 mg/dL
Change in SD over 24 hours in CGM glucose from baseline, median ([2]; Day 28 (LOCF) (300 μg)): -9.57 mg/dL
Change in CGM glucose AUC0-24 h from baseline, LS mean ([2]; Day 28 (LOCF), ANCOVA): -658.64 mg·h/dL
Change in SD over 24 hours in CGM glucose from baseline, LS mean ([2]; Day 28 (LOCF), ANCOVA): -9.73 mg/dL
Change in SD over 24 hours in CGM glucose from baseline, LS mean difference ([2]; Day 28 (LOCF), vs placebo): -8.45 mg/dL
Change in CGM glucose AUC0-24 h from baseline, LS mean difference ([2]; Day 28 (LOCF), vs placebo, ANCOVA): -806.61 mg·h/dL
CV of CGM glucose over 24 hours, change from baseline, LS mean difference ([2]; Day 28, vs placebo): −2.41%
Change from baseline in CGM mean glucose over 24 hours, LS mean difference ([2]; Day 28, vs placebo): -34.06 mg/dL
Change from baseline in MAGE of CGM glucose, LS mean difference ([2]; Day 28, vs placebo): -24.83 mg/dL
Change from baseline in percentage of CGM glucose readings within the euglycemic range, LS mean difference ([2]; Day 28, vs placebo): 8.78%
Change from baseline in percentage of CGM glucose readings within the hyperglycemic range, LS mean difference ([2]; Day 28, vs placebo): −12.83%
7-Day CGM mean glucose, mean ([2]; Days 1 to 7 (100 μg dose)): 116.82 mg/dL
7-Day CGM mean glucose, median ([2]; Days 1 to 7 (100 μg dose)): 111.40 mg/dL
7-Day CGM mean glucose, mean ([2]; Days 8 to 14 (200 μg dose)): 118.78 mg/dL
7-Day CGM mean glucose, median ([2]; Days 8 to 14 (200 μg dose)): 113.48 mg/dL
7-Day CGM mean glucose, mean ([2]; Days 15 to 21 (300 μg dose)): 120.94 mg/dL
7-Day CGM mean glucose, median ([2]; Days 15 to 21 (300 μg dose)): 106.17 mg/dL
7-Day CGM mean glucose, mean ([2]; Days 22 to 28 (300 μg dose)): 115.61 mg/dL
7-Day CGM mean glucose, median ([2]; Days 22 to 28 (300 μg dose)): 108.78 mg/dL
Change from baseline in percentage of CGM glucose readings within the hypoglycemic range, LS mean difference ([2]; in vivo): 3.35%
Effect of dapagliflozin on cotadutide clinical PK ([3]; cotadutide 100 to 300 μg/day): not affected by the presence of dapagliflozin
half-life ([3]; human, plasma, subcutaneous, 300 ug, across doses 100, 200 and 300 μg, read-out: Cotadutide half-life t1/2): 8.8 to 9.1 h
C-peptide AUC0-4 h, change from baseline, LS mean ([4]; Day 28): 0.32 µg·h/L
GLP-1 (active form) AUC0-4 h, change from baseline, LS mean ([4]; Day 28): -131.67 ng·h/L
Glucagon AUC0-4 h, change from baseline, LS mean ([4]; Day 28): -12.52 ng·h/L
Insulin AUC0-4 h, change from baseline, LS mean ([4]; Day 28): −0.08 hr·mU/L
GLP-1 (active form) AUC0-4 h, change from baseline, LS mean difference ([4]; Day 28, vs placebo): -0.73 ng·h/L
Glucagon AUC0-4 h, change from baseline, LS mean difference ([4]; Day 28, vs placebo): 11.3 ng·h/L
Insulin AUC0-4 h, change from baseline, LS mean difference ([4]; Day 28, vs placebo): −2.86 hr·mU/L
Body weight, Day 29 change from baseline, mean ([5]; baseline (Day 1) to Day 29): -3.06 kg
Body weight, Day 29 change from baseline, median ([5]; baseline (Day 1) to Day 29): -2.85 kg
Body weight, Day 29 percent change from baseline, mean ([5]; baseline (Day 1) to Day 29): −3.30%
Body weight, Day 29 percent change from baseline, median ([5]; baseline (Day 1) to Day 29): −3.14%
Proportion of subjects achieving >5% body weight loss ([5]; baseline to Day 29, 3 subjects): 12.5%
Body weight, Day 29 change from baseline, LS mean ([5]; baseline to Day 29, ANCOVA): -3.16 kg
Body weight, Day 29 percent change from baseline, LS mean ([5]; baseline to Day 29, ANCOVA): −3.33%
Body weight, Day 29 change from baseline, LS mean difference ([5]; baseline to Day 29, vs placebo): -2.13 kg
Body weight, Day 29 percent change from baseline, LS mean difference ([5]; baseline to Day 29, vs placebo): −2.26%
